These results are taken from ChEMBL document CHEMBL1131554, “10-omega-phenylalkyl-9(10H)-anthracenones as inhibitors of keratinocyte growth with reduced membrane damaging properties” (Bioorg Med Chem Lett, 1998).

The nature of data set [1]: Compound was measured for lactate dehydrogenase (LDH) release in HaCaT cells after treatment with 2 uM. Type of data set: functional, Homo sapiens.
Data set [2] can be described thus: In vitro for antiproliferate activity against HaCaT cells. Type of data set: functional, cell-based. The note with it: Homo sapiens.
The nature of data set [3]: Deoxyribose degradation as a measure of hydroxyl-radical generation. Type of data set: functional.
A short description of data set [4]: Partition coefficient (logP). Type of data set: physicochemical. The following applies: octanol/water.

Bounds are passed on as bounds.

As usually defined, the IC50 is the point on the concentration scale where inhibition reaches its midpoint. A higher IC50 goes with weaker potency. Turning to `O=C1c2c(O)cccc2Cc2cccc(O)c21` [ANTHRALIN], the LDH in data set [1] was determined as 294 MU. Further, in data set [2], inhibition was half-maximal at 0.7 µM (IC50).

The term logP denotes a log measure of how a compound divides between an organic and an aqueous phase. The low end stands for lower lipophilicity, the high end for higher lipophilicity. For the compound `COc1ccc(CC(=O)C2c3cccc(O)c3C(=O)c3c(O)cccc32)cc1`, the LDH in data set [1] was 143 MU. This compound also gave an Activity (uM of MDA (mM of deoxyribose)-1) in data set [3] below 0.2. The compound also showed a half-maximal inhibitory concentration (IC50) in data set [2] of 1.1 µM. This compound also returned a logP in data set [4] of 4.2.

Compound `COc1ccc(CCC2c3cccc(O)c3C(=O)c3c(O)cccc32)cc1OC` returned an Activity (uM of MDA (mM of deoxyribose)-1) in data set [3] below 0.2. The compound also came in with an IC50 in data set [2] of 3 µM. The compound further yielded a logP in data set [4] of 4.55.

For `O=C1c2c(O)cccc2C(CCc2ccccc2)c2cccc(O)c21`, in data set [3], the Activity (uM of MDA (mM of deoxyribose)-1) was below 0.2. The same compound gave an IC50 in data set [2] below 5 µM. Further, in data set [4], the logP came to 5.27.

`COc1ccc(CCC2c3cccc(O)c3C(=O)c3c(O)cccc32)cc1` registered an LDH in data set [1] of 129 MU. The Activity (uM of MDA (mM of deoxyribose)-1) in data set [3] is below 0.2. In data set [2], this compound gave an IC50 of 0.9 µM. Further, the logP in data set [4] was found to be 5.07.

In data set [3], `O=C1c2c(O)cccc2C(CCc2ccc(O)c(O)c2)c2cccc(O)c21` displayed an Activity (uM of MDA (mM of deoxyribose)-1) of 0.56. For the same compound, in data set [2], the IC50 was above 5 µM. The compound further returned a logP in data set [4] of 3.65.

The compound `O=C1c2c(O)cccc2C(CCCc2ccccc2)c2cccc(O)c21` gave an LDH in data set [1] of 130 MU. The Activity (uM of MDA (mM of deoxyribose)-1) in data set [3] was below 0.2. In data set [2], this compound registered an IC50 above 5 µM. In addition, the logP in data set [4] was 5.51.

For the compound `O=C1c2c(O)cccc2C(CCCCc2ccccc2)c2cccc(O)c21`, the Activity (uM of MDA (mM of deoxyribose)-1) in data set [3] is below 0.2. In addition, the IC50 in data set [2] was below 5 µM. In addition, the logP in data set [4] was 5.72.

With `O=C1c2c(O)cccc2C(Cc2ccc([N+](=O)[O-])cc2)c2cccc(O)c21`, the LDH in data set [1] came out at 142 MU. Also, the Activity (uM of MDA (mM of deoxyribose)-1) in data set [3] is below 0.2. In data set [2], this compound gave an IC50 below 5 µM. The logP in data set [4] stood at 4.16.

In data set [1], `O=C1c2c(O)cccc2C(CCc2cc(O)c(O)c(O)c2)c2cccc(O)c21` returned an LDH of 225 MU. The compound further came in with an Activity (uM of MDA (mM of deoxyribose)-1) in data set [3] of 2.3. In data set [2], the IC50 is above 5 µM. The same compound gave a logP in data set [4] of 3.09.

Consider `COc1cc(CCC2c3cccc(O)c3C(=O)c3c(O)cccc32)cc(OC)c1OC`, for which the Activity (uM of MDA (mM of deoxyribose)-1) in data set [3] came out at 0.97. Further, the IC50 in data set [2] worked out at 4.1 µM. Besides, the logP in data set [4] was 4.37.

In turn, `COc1ccc(CC2c3cccc(O)c3C(=O)c3c(O)cccc32)cc1` registered an LDH in data set [1] of 152 MU. The compound also showed an Activity (uM of MDA (mM of deoxyribose)-1) in data set [3] below 0.2. The compound further had an IC50 in data set [2] above 5 µM. In data set [4], this compound displayed a logP of 4.45.

Compound `O=C1c2c(O)cccc2C(Cc2ccncc2)c2cccc(O)c21` displayed an LDH in data set [1] of 179 MU. In addition, in data set [3], the Activity (uM of MDA (mM of deoxyribose)-1) stood at 1.25. The IC50 in data set [2] stood at 1.8 µM. The same compound displayed a logP in data set [4] of 3.47.

In the case of `O=C1c2c(O)cccc2C(Cc2ccccc2)c2cccc(O)c21`, in data set [1], the LDH is given as 150 MU. For the same compound, the Activity (uM of MDA (mM of deoxyribose)-1) in data set [3] amounted to 0.35. The compound also returned an IC50 in data set [2] above 5 µM.

`O=C1c2c(O)cccc2C(CCc2ccc(O)cc2)c2cccc(O)c21`: in data set [1], the LDH is 136 MU. This compound registered an Activity (uM of MDA (mM of deoxyribose)-1) in data set [3] of 0.4. In data set [2], this compound yielded an IC50 of 3.8 µM. The logP in data set [4] amounted to 4.1.
